# Assays:
# Adenosine receptor A1 = molecular target: T1, Adenosine receptor A1 (Homo sapiens, UniProt P30542); type: cell membranes, CHO, Membrane; details: cho;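 also: radioligand binding assay at the adenosine A1 receptor, with DPCPX serving as the labelled ligand; in other assays of this panel Not Active means under 50% inhibition at 10 µM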
# T1 sequence (P30542 whole entry): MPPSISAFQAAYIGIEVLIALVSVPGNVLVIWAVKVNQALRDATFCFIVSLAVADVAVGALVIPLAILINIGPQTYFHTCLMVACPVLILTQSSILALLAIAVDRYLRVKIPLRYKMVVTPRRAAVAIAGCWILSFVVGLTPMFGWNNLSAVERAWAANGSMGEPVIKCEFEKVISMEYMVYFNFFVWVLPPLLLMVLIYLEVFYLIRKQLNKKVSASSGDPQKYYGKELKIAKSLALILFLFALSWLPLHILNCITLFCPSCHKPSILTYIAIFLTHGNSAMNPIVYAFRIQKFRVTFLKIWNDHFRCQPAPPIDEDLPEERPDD
# [1] = DRUGMATRIX: Imidazoline I2, Central radioligand binding (ligand: [3H] Idazoxan); type: cell membranes, Rattus norvegicus, Wistar, Cerebral cortex, Membrane; details: Not Active = under 50% inhibition at 10 µM
# [2] = molecular target: T2, Alpha-1A adrenergic receptor (Rattus norvegicus, UniProt P43140); test: DRUGMATRIX: Alpha-1A adrenergic receptor radioligand binding (ligand: prazosin); type: cell membranes, Wistar, Submaxillary gland, Membrane; details: Not Active = under 50% inhibition at 10 µM
# T2 sequence (P43140 whole entry): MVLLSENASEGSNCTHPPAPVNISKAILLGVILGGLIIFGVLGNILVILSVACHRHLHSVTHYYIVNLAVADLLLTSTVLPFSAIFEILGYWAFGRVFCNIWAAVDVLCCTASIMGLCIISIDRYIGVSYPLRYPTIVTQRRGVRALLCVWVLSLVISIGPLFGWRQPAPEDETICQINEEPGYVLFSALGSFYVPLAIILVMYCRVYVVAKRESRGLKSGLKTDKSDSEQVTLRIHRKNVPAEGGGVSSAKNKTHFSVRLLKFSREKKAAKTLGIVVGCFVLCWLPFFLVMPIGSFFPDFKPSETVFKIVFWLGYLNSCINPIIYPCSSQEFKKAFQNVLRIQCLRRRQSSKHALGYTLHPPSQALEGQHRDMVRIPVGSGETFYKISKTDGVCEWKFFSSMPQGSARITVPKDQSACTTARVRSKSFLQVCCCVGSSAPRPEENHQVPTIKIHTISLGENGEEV
# Melanocortin receptor 4 = Melanocortin receptor 4 (Homo sapiens, UniProt P32245); type: cell membranes, Membrane; details: hek293; also: in other assays of this panel Not Active means under 50% inhibition at 10 µM
# [3] = molecular target: Aldo-keto reductase family 1 member B1 (Rattus norvegicus, UniProt P07943); type: tissue-based, Lens of camera-type eye;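 also: inhibition of aldose reductase enzyme activity, measured with DL-glyceraldehyde as the substrate; in other assays of this panel Not Active means under 50% inhibition at 10 µM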
# Substance-K receptor = molecular target: T3, Substance-K receptor (Homo sapiens, UniProt P21452); type: cell membranes, CHO, Membrane; details: cho; also: in other assays of this panel Not Active means under 50% inhibition at 10 µM
# T3 sequence (P21452 whole entry): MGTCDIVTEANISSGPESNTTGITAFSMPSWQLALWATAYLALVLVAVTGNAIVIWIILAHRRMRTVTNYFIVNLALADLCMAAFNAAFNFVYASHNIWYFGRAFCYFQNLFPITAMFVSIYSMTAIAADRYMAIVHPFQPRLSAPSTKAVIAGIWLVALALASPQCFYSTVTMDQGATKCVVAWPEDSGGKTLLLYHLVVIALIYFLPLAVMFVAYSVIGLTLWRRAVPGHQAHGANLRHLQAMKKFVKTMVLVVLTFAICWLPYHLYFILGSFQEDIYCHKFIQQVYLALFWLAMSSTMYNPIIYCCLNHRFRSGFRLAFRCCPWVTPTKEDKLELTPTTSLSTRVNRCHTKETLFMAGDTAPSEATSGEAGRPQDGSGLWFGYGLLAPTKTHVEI
# [4] = DRUGMATRIX: Nicotinic Acetylcholine radioligand binding (ligand: [125I] Epibatidine); type: cell membranes, Membrane; details: imr-32; Not Active = under 50% inhibition at 10 µM
# [5] = molecular target: T4, Muscarinic acetylcholine receptor M5 (Homo sapiens, UniProt P08912); type: cell membranes, CHO-K1, Membrane; details: for Ki: read-out: Ki
# T4 sequence (P08912 whole entry): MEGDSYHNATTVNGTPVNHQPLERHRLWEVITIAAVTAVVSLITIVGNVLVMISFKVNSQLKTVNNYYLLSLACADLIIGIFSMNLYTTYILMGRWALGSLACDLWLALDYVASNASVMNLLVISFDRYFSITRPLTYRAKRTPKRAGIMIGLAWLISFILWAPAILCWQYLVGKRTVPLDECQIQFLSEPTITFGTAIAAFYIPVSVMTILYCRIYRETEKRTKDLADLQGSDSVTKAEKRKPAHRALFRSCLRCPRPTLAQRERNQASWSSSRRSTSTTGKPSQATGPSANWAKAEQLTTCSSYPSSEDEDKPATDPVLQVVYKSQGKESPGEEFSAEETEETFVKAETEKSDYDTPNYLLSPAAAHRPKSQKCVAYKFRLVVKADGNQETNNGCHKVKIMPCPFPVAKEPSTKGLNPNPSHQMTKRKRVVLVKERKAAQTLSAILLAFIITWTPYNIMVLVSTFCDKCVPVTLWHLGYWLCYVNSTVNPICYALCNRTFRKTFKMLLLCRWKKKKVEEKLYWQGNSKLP
# [6] = DRUGMATRIX: Glutamate, NMDA, Agonism radioligand binding (ligand: [3H] CGP-39653); type: cell membranes, Rattus norvegicus, Wistar, Cerebral cortex, Membrane; details: Not Active = under 50% inhibition at 10 µM
# [7] = DRUGMATRIX: GABAA, Chloride Channel, TBOB radioligand binding (ligand: [3H] TBOB); type: cell membranes, Rattus norvegicus, Wistar, Cerebral cortex, Membrane; details: Not Active = under 50% inhibition at 10 µM
# [8] = DRUGMATRIX: Platelet-Derived Growth Factor (PDGF) radioligand binding (ligand: [125I] PDGF); type: cell-based; details: nih3t3; Not Active = under 50% inhibition at 10 µM
# [9] = molecular target: T5, 5-hydroxytryptamine receptor 2C (Homo sapiens, UniProt P28335); test: DRUGMATRIX: Serotonin (5-Hydroxytryptamine) 5-HT2C radioligand binding (ligand: [3H] Mesulergine); type: cell membranes, CHO-K1, Membrane; details: cho-k1; Not Active = under 50% inhibition at 10 µM
# T5 sequence (P28335 whole entry): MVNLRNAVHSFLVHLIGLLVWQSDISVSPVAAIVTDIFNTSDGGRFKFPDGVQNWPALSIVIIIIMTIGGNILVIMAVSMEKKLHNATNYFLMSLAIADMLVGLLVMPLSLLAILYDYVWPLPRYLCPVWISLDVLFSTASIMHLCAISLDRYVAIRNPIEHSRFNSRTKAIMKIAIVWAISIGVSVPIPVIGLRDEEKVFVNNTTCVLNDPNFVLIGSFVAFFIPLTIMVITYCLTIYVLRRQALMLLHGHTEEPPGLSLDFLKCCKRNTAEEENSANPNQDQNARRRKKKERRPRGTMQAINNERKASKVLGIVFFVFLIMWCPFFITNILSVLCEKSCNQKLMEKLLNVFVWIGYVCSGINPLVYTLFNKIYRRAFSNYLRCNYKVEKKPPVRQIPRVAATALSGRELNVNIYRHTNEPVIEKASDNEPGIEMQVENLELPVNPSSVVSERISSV
# Sequence of Melanocortin receptor 4 (P32245 whole entry): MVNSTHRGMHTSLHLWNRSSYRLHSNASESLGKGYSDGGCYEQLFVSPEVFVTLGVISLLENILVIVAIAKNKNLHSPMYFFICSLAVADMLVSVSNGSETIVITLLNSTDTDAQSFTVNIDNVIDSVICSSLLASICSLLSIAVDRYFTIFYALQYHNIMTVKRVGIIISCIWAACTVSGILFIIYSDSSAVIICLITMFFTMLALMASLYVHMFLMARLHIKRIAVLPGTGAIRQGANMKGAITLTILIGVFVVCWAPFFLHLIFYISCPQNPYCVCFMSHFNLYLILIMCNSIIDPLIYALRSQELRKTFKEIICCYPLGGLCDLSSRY
Molecule,IC50 (Adenosine receptor A1),IC50 [1],Ki [1],IC50 (Melanocortin receptor 4),IC50 [3],IC50 (Substance-K receptor),IC50 [4],Ki [4],IC50 ([5]; cho-k1),IC50 [6],Ki [6],IC50 [7],Ki [7],IC50 [8],Ki [8],IC50 [9],IC50 [2],other results
CC(CCc1ccccc1)NCC(O)c1ccc(O)c(C(N)=O)c1 (stereo unspecified) [LABETALOL],Not Active,Not Active,Not Active,Not Active,Not Active,Not Active,Not Active,Not Active,Not Active,Not Active,Not Active,Not Active,Not Active,Not Active,Not Active,Not Active,–,IC50 ([2]; read-out: IC50): 57 nM; Ki ([2]; read-out: Ki): 23 nM
CN1[C@@H]2CC[C@H]1C[C@@H](OC(=O)c1c[nH]c3ccccc13)C2 [TROPISETRON],Not Active,Not Active,Not Active,Not Active,Not Active,Not Active,Not Active,Not Active,–,Not Active,Not Active,Not Active,Not Active,Not Active,Not Active,Not Active,Not Active,IC50 ([5]; read-out: IC50): 3.45 µM; Ki [5]: 2480 nM
NC(=O)c1ncn([C@@H]2O[C@H](CO)[C@@H](O)[C@H]2O)n1 [RIBAVIRIN],Not Active,Not Active,Not Active,Not Active,Not Active,Not Active,Not Active,Not Active,Not Active,Not Active,Not Active,Not Active,Not Active,Not Active,Not Active,Not Active,Not Active,–
IVERMECTIN,Not Active,Not Active,Not Active,Not Active,Not Active,Not Active,Not Active,Not Active,–,Not Active,Not Active,Not Active,Not Active,Not Active,Not Active,Not Active,Not Active,"Ki (Adenosine receptor A1): Not Active; Ki [2]: Not Active; Ki (Melanocortin receptor 4): Not Active; Ki [3]: Not Active; Ki (Substance-K receptor): Not Active; IC50 ([5]; cho-k1, read-out: IC50): 3.61 µM; Ki ([5]; cho-k1): 2590 nM; Ki [9]: Not Active"
CO[C@@H]1[C@@H](O[C@@H]2O[C@H](C)[C@@H](O[C@H]3C[C@@](C)(O)[C@@H](OC(=O)CC(C)C)[C@H](C)O3)[C@H](N(C)C)[C@H]2O)[C@@H](CC=O)C[C@@H](C)[C@@H](O)/C=C/C=C/C[C@@H](C)OC(=O)C[C@H]1O [KITASAMYCIN],Not Active,Not Active,Not Active,Not Active,Not Active,Not Active,Not Active,Not Active,Not Active,Not Active,Not Active,Not Active,Not Active,Not Active,Not Active,Not Active,–,IC50 ([2]; read-out: IC50): 1540 nM; Ki ([2]; read-out: Ki): 625 nM
CN(N=O)C(=O)N[C@@H](C=O)[C@@H](O)[C@H](O)[C@H](O)CO [STREPTOZOCIN],Not Active,Not Active,Not Active,Not Active,Not Active,Not Active,Not Active,Not Active,Not Active,Not Active,Not Active,Not Active,Not Active,Not Active,Not Active,Not Active,Not Active,–
CC(C)(C)NCC(O)c1cc(O)cc(O)c1 (stereo unspecified) [TERBUTALINE],Not Active,Not Active,Not Active,Not Active,Not Active,Not Active,Not Active,Not Active,Not Active,Not Active,Not Active,Not Active,Not Active,Not Active,Not Active,Not Active,Not Active,–
Nc1ccc(S(N)(=O)=O)cc1 [SULFANILAMIDE],Not Active,Not Active,Not Active,Not Active,Not Active,Not Active,Not Active,Not Active,Not Active,Not Active,Not Active,Not Active,Not Active,Not Active,Not Active,Not Active,Not Active,–

# Source: ChEMBL document CHEMBL1909046, “DrugMatrix in vitro pharmacology data”
